The record followed here is US20250009746A1, “COMBINATION THERAPY FOR TREATING ABNORMAL CELL GROWTH” (Verastem, Inc., priority 2021, published 2025).

Common to all, as to format: cell-based
Assay [1] relates to NRAS mutant human melanoma cell lines. The experiment in a line: 3D proliferation assay (CellTiter-Glo) with synergy analysis, NRAS mutant melanoma panel. To be noted: VS-6766 + pan-RAF inhibitor (e.g., belvarafenib, naporafenib, lifirafenib, tovorafenib); 7 days; 3 NRAS mutant melanoma cell lines; Bliss, Loewe, HSA, ZIP (FIGS. 7, 8). As for the experimental part: (§1) As examples, BRAF V600E human melanoma, BRAF V600E human colorectal carcinoma (CRC), and NRAS mutant human melanoma cell lines were grown in 3D conditions. Briefly, 96-well plates were coated with 50 μL of Matrigel (100%) and incubated at 37° C. and 5% CO2 for 30 min in order for the Matrigel to solidify. Cells were seeded in 100 μL of 2% Matrigel containing medium. After an overnight incubation (17-22 hours), cells were treated with VS-6766+/−BRAF V600 inhibitor (e.g., vemurafenib, dabrafenib, encorafenib), VS-6766+/−pan-RAF inhibitor (e.g., belvarafenib, naporafenib, lifirafenib, tovorafenib), or MEK inhibitor (e.g., cobimetinib, trametinib, binimetinib)+/−BRAF (e.g., vemurafenib, dabrafenib, encorafenib) inhibitor for 7 days. VS-6766 and MEK inhibitors were used at 1:5 dilutions starting at 5 μM. BRAF V600 inhibitors and pan-RAF inhibitors were used at 1:3 dilutions starting at 5 μM. Cell viability was measured using the cell viability CellTiter-Glo assay.
(§2) Raw data and metadata files were processed with a custom R-script for single agent and combination activity. Bliss, Loewe, Highest Single Agent (HSA) and ZIP synergy analysis were performed to generate a composite synergy score. Summary graphics and reports were saved for visualization and further analysis.
For orientation: Cellular ATP, detected with luciferase, serves as a proxy for viable cell number.

Assay [2] relates to BRAF V600E human melanoma cell lines. The experiment in a line: 3D proliferation assay (CellTiter-Glo) with synergy analysis, BRAF V600E melanoma panel. As to the method:
as §1, §2

The test system of assay [3] is BRAF V600E human colorectal carcinoma (CRC) cell lines. The experiment in a line: 3D proliferation assay (CellTiter-Glo) with synergy analysis, BRAF V600E CRC panel. As for the experimental part: as §1, §2

Molecules are shown by their SMILES. “Also recorded” adds a separate entry of the source.

`CNS(=O)(=O)Nc1nccc(Cc2c(C)c3ccc(Cc4ncccn4)cc3oc2=O)c1F` [VS-6766]: in assay [1], the “synergy with pan-RAF inhibitors in reducing cell viability” value is given as “strong synergy; also recorded: synergistic”. The “synergy of VS-6766+BRAFi compared with synergy of MEKi+BRAFi” value in assay [2] (BRAF V600E melanoma cell lines, composite synergy score (FIG. 1)) was “better”; in assay [3] (BRAF V600E colorectal carcinoma cell lines, composite synergy score (FIG. 4)), “better”. For the same compound, the “synergy of VS-6766+vemurafenib compared with synergy of cobimetinib+vemurafenib” value is reported as “better” in assay [2] (BRAF V600E melanoma cell lines, dose-response matrices, each agent starting at 5 μM, Bliss synergy shown (FIG. 2)) and “better” in assay [3] (BRAF V600E colorectal carcinoma cell lines, dose-response matrices, each agent starting at 5 μM, Bliss synergy shown (FIG. 5)). Also, the “synergy of VS-6766+dabrafenib compared with synergy of trametinib+dabrafenib” value in assay [2] (BRAF V600E melanoma cell lines, dose-response matrices, each agent starting at 5 μM, Bliss synergy shown (FIG. 3)) is “better”; in assay [3] (BRAF V600E colorectal carcinoma cell lines, dose-response matrices, each agent starting at 5 μM, Bliss synergy shown (FIG. 6)), “better”. Besides, the “synergy with BRAF V600 inhibitors in reducing cell viability” value in assay [2] (VS-6766 + BRAF V600 inhibitor (e.g., vemurafenib, dabrafenib, encorafenib), 7 days, 5 BRAF V600E melanoma cell lines, Bliss, Loewe, HSA, ZIP composite synergy score) is listed as “synergistic”; in assay [3] (VS-6766 + BRAF V600 inhibitor (e.g., vemurafenib, dabrafenib, encorafenib), 7 days, 3 BRAF V600E CRC cell lines, Bliss, Loewe, HSA, ZIP composite synergy score), “synergistic”.
